Entries after “also recorded” stand apart in the source; their conditions may differ.
Experiments:
[1] = target: T1, CCK-B receptors (CHO-CCK) (Homo sapiens, UniProt P32239); experiment: Calcium flux (Fluo-8) agonist test on CHO-CCK model cells; format: cell-based; conditions: CHO-CCK cells
T1 construct: expressed in transfected cells; host or cells: CHO (CHO-CCK model cells)
T1 sequence (P32239 1-447): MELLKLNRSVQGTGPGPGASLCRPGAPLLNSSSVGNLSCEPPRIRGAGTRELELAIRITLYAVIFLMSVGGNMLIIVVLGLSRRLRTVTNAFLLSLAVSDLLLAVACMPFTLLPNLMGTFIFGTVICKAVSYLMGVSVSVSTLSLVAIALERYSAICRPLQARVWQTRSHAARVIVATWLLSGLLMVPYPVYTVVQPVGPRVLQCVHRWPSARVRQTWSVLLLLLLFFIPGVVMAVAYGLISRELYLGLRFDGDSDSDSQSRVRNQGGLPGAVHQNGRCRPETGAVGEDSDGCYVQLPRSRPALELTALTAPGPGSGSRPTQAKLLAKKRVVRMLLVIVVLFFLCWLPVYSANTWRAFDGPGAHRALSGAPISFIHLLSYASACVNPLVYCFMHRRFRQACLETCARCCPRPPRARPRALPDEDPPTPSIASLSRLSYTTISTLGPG
Method in brief: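 Agonist-mode Fluo-8 calcium flux read on CHO-CCK cells after dye loading 30 min at 37 °C plus 30 min at room temperature.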

[2] = target: T1, CCK-B receptors (CHO-CCK); experiment: Calcium flux (Fluo-8) antagonist test on CHO-CCK model cells in presence of CCK8; format: cell-based; conditions: in presence of 10 nM CCK8
[3] = system: tri-transgenic Alzheimer's mice (3×Tg-AD); experiment: Morris water maze, Alzheimer's mice; format: in vivo; conditions: intraperitoneal injection
From the text: Adult male tri-transgenic Alzheimer's mice (3×Tg-AD) were housed under standard conditions with free access to food and water. Our Morris water maze experiment for testing Alzheimer's mice mainly included two parts: positioning navigation experiment and space exploration experiment. The positioning navigation experiment lasted for 8-10 days, and the mice were put into the water four times a day from four entry points facing the pool wall, and the time they spent in finding the hidden platform under the water surface (evasion latency) was recorded. The space exploration experiment was to remove the platform after the positioning navigation experiment, and then put the mice into the pool, record their swimming tracks within one minute, investigate the memory of the mice on the original platform, and calculate the proportion of exploration duration of the mice in the quadrant where the original platform was located (target quadrant). Alzheimer's mice were confirmed to have memory deficiency in the Morris water maze experiment, showing not only a longer evasion latency for positioning the hidden platform in the positioning navigation experiment, but also a worse memory backtracking ability in the space exploration experiment. We randomized Alzheimer's mice into four groups, with the first group given intraperitoneal injection of the CCK4 solution, the second group given intraperitoneal injection of the solvent of CCK4 solution as a control, the third group given intraperitoneal injection of the compound HT-267 solution, and the fourth group given intraperitoneal injection of the solvent of HT-267 solution as a control.

[4] = system: tri-transgenic Alzheimer's mice (3×Tg-AD); experiment: New object recognition experiment, Alzheimer's mice; format: in vivo; conditions: intraperitoneal injection
From the text: The new object recognition experiment is a highly validated method of cognitive memory, designed by Ennaceur & Delacour (1988) based on the exploration characteristics of rodents to new environments, and this model evaluates the memory function of the tested animal based on the length of time that the animal spends in exploring familiar objects it has seen in the environment and new objects it has not seen. […] The experiment is usually divided into three stages: 1. Adaptation period: let the animal be familiar with the experimental environment, and no objects are placed in the experimental box; 2. Familiarization period: place two identical objects in the experimental box and let the mice explore freely for 10 minutes; 3. Test period: put a new object in the experimental box to replace one of the old objects, and the positions of the objects remain unchanged. The exploration of mice was recorded with video, and the time spent in exploring the old and new objects by mice was analyzed, and the proportion of time spent in exploring the new object by mice in the test period accounting for the total time for exploring the objects was calculated, that is, the recognition index of new objects.
Adult male tri-transgenic Alzheimer's mice (3×Tg-AD) were housed under standard conditions with free access to food and water. […]

[5] = system: neocortex of senile mice; experiment: Long-term potentiation, in vitro field potential recording of brain slices (MED64), senile mice; format: cell-based; conditions: compound injected for five minutes
From the text: Long-term potentiation (LTP) is considered by researchers to be one of the memory mechanisms. We used an in vitro electrophysiological electrical signal recording method to investigate whether compound HT-267 can induce long-term potentiation in the neocortex of senile mice.
We used an MED64 low-noise multi-electrode recording system to record the electrical signals of brain slices cultured in vitro.

[6] = system: neocortex of memory-deficient mice; experiment: Long-term potentiation, in vitro field potential recording of brain slices (MED64), memory-deficient mice; format: cell-based; conditions: compound injected for five minutes
From the text: An in vitro electrophysiological electrical signal recording method was used to investigate whether compound HT-267, compound HT-177, and compound HT-178 can induce long-term potentiation in the neocortex of memory-deficient mice. The MED64 low-noise multi-electrode recording system was used to record the electrical signals of brain slices cultured in vitro.

CSCC[C@H](NC(=O)[C@@H](Cc1c[nH]c2ccccc12)NC(C)=O)C(=O)N[C@@H](CC(=O)O)C(=O)N[C@@H](Cc1cccc(Br)c1)C(N)=O [HT-267, Ac-D-Trp-Met-Asp-Phe(3-Br)-NH2]
EC50 ([1]; Fluo-8 calcium flux, 100% control = 20 nM CCK8): 0.113 nM | agonistic/antagonistic activity on CCK-B receptors (in words) ([1]; calcium signal): more active | EC50 [2]: 23.8 nM | proportion of exploration duration in the target quadrant vs control [3]: significantly higher than the control group; also recorded: slightly better than the CCK4 administration group | spatial exploration tracks in space exploration experiment [3]: more spatial exploration tracks at the original position of the platform | evasion latency in positioning navigation experiment vs control ([3]; CCK4 four times a day 10 days, HT-267 once a day 8 days): shorter than that of the control group | recognition index of new objects vs control [4]: significantly higher than that of the control group | basal field potential after administration (long-term potentiation) [5]: enhanced, and the enhancement lasted for more than one hour | basal field potential after administration (long-term potentiation) [6]: enhanced, and the enhancement lasted for more than one hour
